# Measured values from article PMC10619976, “Structural basis of EHEP-mediated offense against phlorotannin-induced defense from brown algae to protect akuBGL activity” (eLife, 2023).
# Molecular target: T1, akuBGL (110 kDa β-glucosidase) (Aplysia kurodai, UniProt A0A1V1FXL2)
# T1 construct: gene ApBGL; native, purified from digestive fluid; signal peptide M1-D25 removed; 110 kDa; two GH1 domains (L26-T494, D513-P978); N-glycosylated at N113, N212, N645; precursor ends at M994
# Test: HPLC or absorbance at […] nm of o-nitrophenol
# Type: biochemical
# Conditions: 2.5 mM ONPG, 49 nM akuBGL, pH 5.5, 100 mM NaCl, 10 mM CaCl2, 37 °C, 10 min
# T1 sequence (A0A1V1FXL2 entry or part of it): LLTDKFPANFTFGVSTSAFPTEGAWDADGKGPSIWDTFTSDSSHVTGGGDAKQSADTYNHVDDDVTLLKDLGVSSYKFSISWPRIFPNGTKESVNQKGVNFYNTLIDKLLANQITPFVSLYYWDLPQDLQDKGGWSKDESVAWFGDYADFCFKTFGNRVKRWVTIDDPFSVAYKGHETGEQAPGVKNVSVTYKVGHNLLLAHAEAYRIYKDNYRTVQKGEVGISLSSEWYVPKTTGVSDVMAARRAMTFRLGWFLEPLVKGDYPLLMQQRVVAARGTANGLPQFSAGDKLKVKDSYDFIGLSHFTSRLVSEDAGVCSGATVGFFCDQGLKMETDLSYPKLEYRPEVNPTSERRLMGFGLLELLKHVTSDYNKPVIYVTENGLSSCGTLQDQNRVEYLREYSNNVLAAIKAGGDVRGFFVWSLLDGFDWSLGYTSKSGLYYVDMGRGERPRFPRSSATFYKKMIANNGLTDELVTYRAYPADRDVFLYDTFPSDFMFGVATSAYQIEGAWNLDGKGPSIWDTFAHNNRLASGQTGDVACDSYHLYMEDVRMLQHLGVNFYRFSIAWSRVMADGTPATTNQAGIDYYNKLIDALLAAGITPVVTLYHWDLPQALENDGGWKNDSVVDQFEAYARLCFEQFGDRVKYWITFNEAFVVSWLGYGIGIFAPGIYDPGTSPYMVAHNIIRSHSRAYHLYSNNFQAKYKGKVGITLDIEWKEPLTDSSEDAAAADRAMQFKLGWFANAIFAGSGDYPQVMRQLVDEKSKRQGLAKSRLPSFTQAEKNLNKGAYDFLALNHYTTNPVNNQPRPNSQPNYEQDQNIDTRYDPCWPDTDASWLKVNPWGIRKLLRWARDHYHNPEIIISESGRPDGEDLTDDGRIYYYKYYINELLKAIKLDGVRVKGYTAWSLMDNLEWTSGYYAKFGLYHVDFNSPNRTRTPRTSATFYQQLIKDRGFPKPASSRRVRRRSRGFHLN
compound,measurement,value
O=[N+]([O-])c1ccccc1O[C@@H]1O[C@H](CO)[C@H](O)[C@H](O)[C@H]1O [ortho-nitrophenyl-β-galactoside],HPLC or absorbance at 420 nm of o-nitrophenol,Ortho-nitrophenyl-β-galactoside (ONPG) was used as a substrate to measure akuBGL activity
